Results on one sequence are retold here after article PMC10818749, “Toxicity Studies of Cardiac-Targeting Peptide Reveal a Robust Safety Profile” (Pharmaceutics, 2024).

Experiment [1] deals with T1, HEK-Kir2.1 (Homo sapiens, UniProt P63252).
T1 construct: host or cells: HEK
The format is cell-based. As to conditions: CTP 0.1 to 30 µM; HEK cells; step to -120mV; 0.1% Pluronic F-68.

Experiment [2] concerns seventy-eight protein channels. Put plainly: Eurofins SAFETYscan E/IC50 ELECT (all seventy-eight assays). As to conditions: CTP 0.1 µM to 30 µM. As for the experimental part:
Eurofins Toxicology Study: In vitro toxicology studies were performed by Eurofins Scientific through both their Ion Channel Profiler and Cardiac Profiler Panel and their DiscoverX’s SAFETYscan E/IC50 […] service. Increasing concentrations of CTP (0.1 µM to 30 µM) were tested against various ion channels and a total of seventy-eight assays performed utilizing various output reads, including GPCR cAMP modulation assays, calcium mobilization assays, nuclear hormone receptor assays, KINOMEscan binding assays, ion channel assays, transporter assays, and enzymatic assays. All methods described below were performed, described, and reported by Eurofins Scientific in their study report (Supplementary Methods S1 and S2).
GPCR cAMP modulation assays, calcium mobilization assays, nuclear hormone receptor assays, KINOMEscan binding assays, ion channel assays, transporter assays, and enzymatic assays were performed by Eurofins under GLP standards.
DiscoverX was contracted by Maliha Zahid at Mayo Clinic to profile 1 compound(s) with the SAFETYscan E/IC50 ELECT service. Details are
Product: SAFETYscan E/IC50 ELECT
ADOR A2A- Calci um Flux-Agonist DRD2S-cAMP-Agonist HTR3A-Ion Channel-Blocker
ADORA2A-Calcium Flux-Antagonist DRD2S-cAMP-Antagonist HTR3A-Ion Channel-Opener
ADRA1A-Calcium Flux-Agonist EDNRA-Calcium Flux-Agonist KvLQT1/minK-Ion Channel-Blocker […]

The subject of experiment [3] is GABAA. Put plainly: GABAA ion channel assay. The format is cell-based. As to conditions: FLIPR Tetra, up to 30 µM, read-out: RC50 (the source's name). As to the method: Ion Channel Assays: Cell lines were grown, plated, and loaded with 1× loading buffer containing 1× dye and 2.5 mM freshly prepared probenecid. Assays were performed, and activity was measured using a FLIPR Tetra. Percent of activation and percent of inhibition were calculated to determine agonist and antagonist activity, respectively. […]
in complementation with EA generating a unit of active β-gal and based assay for the detection of dopamine, norepinephrine or sero-production of a chemiluminescent signal upon the addition of Path- tonin transporter activity in cells expressing these transporters. The Hunter detection reagents. kit employs a fluorescent substrate that mimics the biogenic amine neurotransmitters that are taken into the cell through these specific transporters, resulting in increased intracellular fluorescence inten-sity. […]
KINOMEscan® Assay fluorescence for improved signal/noise ratio. […]
Compounds that bind the kinase active site and directly (sterically) be monitored within a single experiment. or indirectly (allosterically) prevent kinase binding to the immobi-lized ligand, will reduce the amount of kinase captured on the solid Calcium Assay […]
kinase have no effect on the amount of kinase captured on the of changes in intracellular calcium. […] In a similar manner, dissociation con- an increase of dye fluorescence. […]

Entries after “also recorded” stand apart in the source; their conditions may differ. Ends that are not written are not given here.

T1 sequence (P63252 whole entry): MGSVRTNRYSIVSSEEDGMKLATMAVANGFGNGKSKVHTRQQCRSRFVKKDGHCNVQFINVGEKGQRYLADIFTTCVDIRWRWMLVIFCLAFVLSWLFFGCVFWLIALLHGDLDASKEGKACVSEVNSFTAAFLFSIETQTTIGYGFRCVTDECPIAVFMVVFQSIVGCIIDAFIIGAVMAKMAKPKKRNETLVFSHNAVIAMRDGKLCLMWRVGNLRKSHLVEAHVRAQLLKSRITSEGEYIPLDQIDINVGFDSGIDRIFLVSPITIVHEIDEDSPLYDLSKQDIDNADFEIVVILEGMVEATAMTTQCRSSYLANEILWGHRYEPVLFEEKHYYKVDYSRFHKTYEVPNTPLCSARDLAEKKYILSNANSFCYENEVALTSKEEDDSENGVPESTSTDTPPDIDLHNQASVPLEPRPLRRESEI

In the case of APWHLSSQYSRT [CTP], the “Estimated IC50” value in experiment [1] is reported as “N/C (Not calculable, inhibition >25% was not observed.)”. In experiment [2], the “significant interactions across all seventy-eight assays” value was “No significant activation or inhibition of any of seventy-eight protein channels was observed other than OPRM1 and COX2 at the highest tested concentration; also recorded: only two showed significant interactions”. In addition, in experiment [3] (agonist (opener)), the EC50 was above 30 µM. For the same sequence, in experiment [3] (antagonist (blocker)), the IC50 is above 30 µM.
